Data taken from BindingDB's records for patent WO2022103411 (Genentech, 2022).

Columns and labels:
[1] = target: T1, von Hippel-Lindau disease tumor suppressor (Homo sapiens, UniProt P40337); assay: VHL HEK-293 BRET Assay
Protocol: The VHL NanoBRET Target Engagement Assay analyzes the apparent affinity of test compounds for VHL in cells by competitive displacement of a VHL NanoBRET tracer reversibly bound to a NanoLuc VHL fusion protein stably expressed in the cells. […] 50 nL of control compound (lOmM; parental unlabeled VHL antagonist; see structure below) and 50 nL of DMSO (negative control) were dispensed into the appropriate control wells. DMSO was backfilled to a final volume of 50 nL as required. […] Max Signal control wells consisted of DMSO only treated wells. Minimum Signal control wells contained of 10 uM parental unlabeled VHL antagonist (control compound - see structure below). […] Background Signal control wells were prepared without tracer for background correction steps. […] The raw BRET ratio values were calculated by dividing the acceptor emission value (610 nm) by the donor emission value (460nm) for each sample. To correct for background, the BRET ratio in the absence of tracer (average of no-tracer control samples) was subtracted from the BRET ratio of each sample. Raw BRET units were converted to milliBRET units (mBU) by multiplying each raw BRET value by 1,000. The normalized NanoBRET signal was calculated relative to the Max Signal control wells (DMSO treated control wells) and the Minimum Signal control wells. Percentage inhibition was calculated relative to the Minimum Signal control and Maximum Signal control wells. IC50 values were derived by four parameter curve fitting using the Robust method.

[2] = target: T1, von Hippel-Lindau disease tumor suppressor; assay: Fluorescence Polarization (FP) VHL Binding Assay
Protocol: The binding of test compounds to the VHL Elongin B/C complex was measured using a fluorescence polarization tracer competition assay. […] A VHL fluorescence polarization probe consisted of a VHL ligand coupled to carboxytetramethylrhodamine (TAMRA); (2S,4R)-N-(2-(2-(3',6'-bis(dimethylamino)-3-oxo-3H-spiro[isobenzofuran-l,9'-xanthene]-5-carboxamido)ethoxy)-4-(4-methylthiazol-5-yl)benzyl)-4-hydroxy-l-((R)-3-methyl-2-(3-methylisoxazol-5-yl)butanoyl)pyrrolidine-2-carboxamide. […] DMSO was dispensed into wells designated for “VHL control” (without compound) wells. The “Assay Buffer” consisted of 50 mM Tris pH 8.0, 120 mM NaCl, 0.005% Nonidet P-40, and 1% DMSO (v/v). […] Assay Buffer was also dispensed into “no VHL control” wells using the same method. […] “Post-assay” fluorescence polarization measurements were made as described for the “pre-assay” fluorescence measurement. Fluorescence polarization was calculated for each sample; taking into account the “pre-assay” fluorescence measurements and subtracting the fluorescence signal of the compound/VHL only (“pre-assay”) measurements from the “post-assay” fluorescence polarization measurements, for each plane of polarization. The data were analyzed using Genedata Screener software and normalized to the “no VHL control” and “VHL control” (without compound). IC50 values were calculated using a four parameter curve fit (Robust method).

T1 sequence (P40337 whole entry): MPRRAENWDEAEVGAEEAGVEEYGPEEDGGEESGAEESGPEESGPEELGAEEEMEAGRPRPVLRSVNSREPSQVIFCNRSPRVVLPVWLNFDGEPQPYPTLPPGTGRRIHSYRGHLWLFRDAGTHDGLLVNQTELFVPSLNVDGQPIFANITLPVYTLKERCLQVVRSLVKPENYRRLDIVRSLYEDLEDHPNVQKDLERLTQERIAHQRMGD

`Cc1ncsc1-c1ccc2c(c1)CCCC[C@@H]2NC(=O)[C@@H]1C[C@@H](O)CN1C(=O)[C@@H](n1cc(C2CC2)nn1)C(C)(C)C` [WO2022103411, Compound 52] was tested, and the IC50 [1] was less than 5 nM.
`NC(=O)[C@@H](Cc1ccc(-c2ccccc2)cc1)NC(=O)C1C[C@@H](O)CN1C(=O)[C@H](C1CCC1)n1cc(C2CC2)nn1` (stereo not given in full) [WO2022103411, Example S4] gave an IC50 [1] of 190 nM.
`Cc1ncsc1-c1ccc(CNC(=O)[C@@H]2C[C@@H](O)CN2C(=O)[C@@H](n2cc(Cc3ccccc3)nn2)C(C)(C)C)cc1` [WO2022103411, Example S27] was tested, and the IC50 [1] was 20 nM.
In the case of `CCC(C)[C@@H](C(=O)N1C[C@H](O)CC1C(=O)N[C@H](Cc1ccc(-c2ccccc2)cc1)C(N)=O)n1cc(C2CC2)nn1` (stereo not given in full) [WO2022103411, Example S5], the IC50 [1] is reported as 130 nM.
`Cc1ncsc1-c1ccc(CNC(=O)[C@@H]2C[C@@H](O)CN2C(=O)[C@@H](n2cc(C3CC3)nn2)C(C)(C)C)cc1` [WO2022103411, Example S24] was tested, and the IC50 [1] was 10 nM.
`CC(C)[C@@H](C(=O)N1C[C@H](O)C[C@H]1C(=O)N[C@H](Cc1ccc(-c2ccccc2)cc1)C(N)=O)n1nnc2ccccc21` [WO2022103411, Compound 38] was tested, and the IC50 [1] was 300 nM.
`Cc1ncsc1-c1ccc(C(C)NC(=O)C2C[C@@H](O)CN2C(=O)[C@H](C2C3CC4CC(C3)CC2C4)n2cc(C3CC3)nn2)c(Cl)c1` (stereo not given in full) [WO2022103411, Example S23] was tested, and the IC50 [1] was 20 nM.
`Cc1ncsc1-c1ccc(CNC(=O)C2C[C@H](O)CN2C(=O)[C@@H](n2cc(C3(c4cn([C@H](C(=O)N5C[C@H](O)C[C@H]5C(=O)NCc5ccc(-c6scnc6C)cc5)C(C)(C)C)nn4)CC3)nn2)C(C)(C)C)cc1` (stereo not given in full) [WO2022103411, Compound 31] gave an IC50 [1] of 310 nM.
In the case of `CCC(C)(C)[C@@H](C(=O)N1C[C@H](O)C[C@H]1C(=O)N[C@@H](C)c1ccc(-c2scnc2C)cc1)n1cc(C2CC2)nn1` [WO2022103411, Example S21], the IC50 [1] is reported as less than 5 nM.
Molecule `COC(=O)c1nnn([C@H](C(=O)N2C[C@H](O)C[C@H]2C(=O)N[C@H](Cc2ccc(-c3ccccc3)cc2)C(N)=O)C(C)C)c1C` [WO2022103411, Compound 34] has an IC50 [1] of 6250 nM.
For `C=CC(C)(C)[C@@H](C(=O)N1C[C@H](O)CC1C(=O)N[C@H](Cc1ccc(-c2ccccc2)cc1)C(N)=O)n1cc(C2CC2)nn1` (stereo not given in full) [WO2022103411, Example S7], the IC50 [1] was 110 nM.
`CCC(C)(C)[C@@H](C(=O)N1C[C@H](O)CC1C(=O)N[C@H](Cc1ccc(-c2ccccc2)cc1)C(N)=O)n1cc(C2CC2)nn1` (stereo not given in full) [WO2022103411, Example S6] gave an IC50 [1] of 100 nM.
In the case of `CC(C)(C)[C@@H](C(=O)N1C[C@H](O)CC1C(=O)N[C@H](Cc1ccc(-c2ccccc2)cc1)C(N)=O)n1cc(C2CC2)nn1` (stereo not given in full) [WO2022103411, Example S3], the IC50 [1] is reported as 150 nM and the IC50 [2] is reported as 150 nM.
`Cc1ncsc1-c1ccc(CNC(=O)[C@@H]2C[C@@H](O)CN2C(=O)[C@H](C2CCCCC2)n2cc(C3CC3)nn2)cc1` [WO2022103411, Example S25] was tested, and the IC50 [1] was less than 5 nM.
`COC(=O)c1nnn([C@@H](C(=O)N2C[C@H](O)C[C@H]2C(=O)N[C@H](Cc2ccc(-c3ccccc3)cc2)C(N)=O)C(C)C)c1C` [WO2022103411, Compound 35] was tested, and the IC50 [1] was 1620 nM.
`Cc1ncsc1-c1ccc([C@H](C)NC(=O)C2C[C@@H](O)CN2C(=O)[C@H](C2C3CC4CC(C3)CC2C4)n2cc(C3CC3)nn2)cc1` (stereo not given in full) [WO2022103411, Example S20] showed an IC50 [1] of less than 5 nM.
With `Cc1ncsc1-c1ccc2c(c1)CCCC[C@H]2NC(=O)[C@@H]1C[C@@H](O)CN1C(=O)[C@@H](n1cc(C2CC2)nn1)C(C)(C)C` [WO2022103411, Compound 53] the IC50 [1] was 200 nM.
`CC(=O)NCCOCc1cn([C@H](C(=O)N2C[C@H](O)CC2C(=O)N[C@H](Cc2ccc(-c3ccccc3)cc2)C(N)=O)C(C)(C)C)nn1` (stereo not given in full) [WO2022103411, Example S14] gave an IC50 [1] of 20700 nM and an IC50 [2] of 80 nM.
